Data taken from the NIST ThermoML archive (doi:10.1016/j.tca.2014.08.035).
± gives the expanded uncertainty stated by the source. Blank lines part the entries; values can stand above or below the compound they belong to.

Assays:
[1] = DTA
[2] = Molar enthalpy of transition or fusion; settings: DSC
[3] = Solid-liquid equilibrium temperature; settings: 10000 kPa; Crystal 2; DTA
[4] = molar enthalpy of transition or fusion; settings: 640.05 K; Crystal 2; DSC

- Normal melting temperature ([1]; Crystal): 144.20 ± 0.5 °C
- Molar enthalpy of transition or fusion ([2]; Crystal): 3.51 ± 0.143 kcal/mol
Structure (SMILES): O=S(=O)([O-])O.[NH4+] [ammonium acid sulfate]

- Normal melting temperature ([1]; Crystal): 132.90 ± 0.4 °C
- Molar enthalpy of transition or fusion ([2]; Crystal): 3.99 ± 0.143 kcal/mol
Structure (SMILES): N.NS(=O)(=O)O [ammonium sulfamate]

- Solid-liquid equilibrium temperature [3]: 640.05 ± 0.8 K
- molar enthalpy of transition or fusion [4]: 0.669 ± 0.191 kcal/mol
- Molar enthalpy of transition or fusion ([2]; Crystal 3): 0.681 ± 0.43 kcal/mol
Structure (SMILES): N.N.O=S(=O)(O)O [ammonium sulfate]

- Normal melting temperature ([1]; Crystal 1): 229.00 ± 4 °C
- Triple point temperature ([1]; Crystal 2): 412.85 ± 0.5 K
- Molar enthalpy of transition or fusion ([2]; Crystal 1): 7.65 ± 1.91 kcal/mol
- Molar enthalpy of transition or fusion ([2]; Crystal 2): 0.645 ± 0.0717 kcal/mol
Structure (SMILES): O=S(=O)([O-])O.O=S(=O)([O-])[O-].[NH4+].[NH4+].[NH4+] [triammonium hydrogen disulfate]
